Source: patent US9046767B2, “Photoacid generator, photoresist, coated substrate, and method of forming an electronic device” (ROHM AND HAAS ELECTRONIC MATERIALS LLC, priority 2013, dated 2015)

Assay: Solubility evaluation of photoacid generators in organic solvents
Format: physicochemical
Conditions: 2 weight percent, room temperature; for Solubility in 2-Heptanone: solvent 2-Heptanone; for Solubility in PGMEA: solvent PGMEA; for Solubility in 2-Hepanone/n-Butyl Propionate (1:1 w/w): solvent blend 1:1 w/w; for Solubility in n-Butyl Acetate: solvent n-Butyl Acetate
Method: The photoacid generators were evaluated for solubility in a selection of organic solvents. Solubility of each of the compounds PAG-2, PAG-A1, PAG-A2 were obtained for attempts to completely dissolve the PAG at 2 weight percent at room temperature in different organic solvents and solvent blends. The results for the solubility tests (i.e., where the PAG is observed to be completely soluble in the solvent, or is only partially soluble or insoluble based on the presence of insoluble material) are shown in Table 1, where “O” indicates solubility at 2 weight percent, and “X” indicates partial solubility or insolubility at 2 weight percent.

| Compound | Solubility in 2-Heptanone | Solubility in PGMEA | Solubility in 2-Hepanone/n-Butyl Propionate (1:1 w/w) | Solubility in n-Butyl Acetate |
| --- | --- | --- | --- | --- |
| 4-(2-oxo-2-(2,2,2′,2′-tetramethyl-4,4′-bis(1,3-dioxolan)-5-yl-methoxyethoxy)phenyl)diphenylsulfonium 1-adamantyl-3,3,4,4-tetrafluorobutane sulfonate [PAG-A1] | ◯ | ◯ | ◯ | ◯ |
| CC1(C)OCC(C2OC(C)(C)OC2COC(=O)COc2ccc([S+](c3ccccc3)c3ccccc3)cc2)O1.O=C(OCC12CC3CC(CC(O)(C3)C1)C2)C(F)(F)S(=O)(=O)[O-] (stereo not drawn) [PAG-A2, 4-(2-oxo-2-(2,2,2′,2′-tetramethyl-4,4′-bis(1,3-dioxolan)-5-yl-methoxyethoxy)phenyl)diphenylsulfonium 1,1-difluoro-2-(3-hydroxyadamantan-1-yl-methoxy)-2-oxoethanesulfonate] | ◯ | ◯ | ◯ | ◯ |
| Triphenylsulfonium 1,1-difluoro-2-((-3-hydroxyadamantan-1-yl)methoxy)-2-oxoethanesulfonate [C. PAG 2, reference compound] | X (“X” indicates partial solubility or insolubility at 2 weight percent) | X (“X” indicates partial solubility or insolubility at 2 weight percent) | X (“X” indicates partial solubility or insolubility at 2 weight percent) | X (“X” indicates partial solubility or insolubility at 2 weight percent) |
